Experimental data published in US20230218632A1, “CYCLIC SULFONAMIDE DERIVATIVES AS TRAP1 MODULATORS AND USES THEREOF” (Amathus Therapeutics, Inc., priority 2020, published 2023).

Test system: primary rat dopaminergic neurons
Experiment: ROS production in primary rat dopaminergic TH-positive neurons after 6-OHDA injury
Type: cell-based
Conditions: after injury with 6-OHDA (20 µM, 4 h); FIG. 1
Method: Rat dopaminergic neurons were cultured as described by Visanji et al., 2008. Briefly, pregnant female rat of 15 days of gestation are sacrificed using a deep anesthesia with CO2 chamber and a cervical dislocation. The midbrains obtained from 15-day-old rat embryos are dissected under a microscope. The embryonic midbrains are removed and placed in ice-cold medium of Leibovitz (L15) containing 2% of Penicillin- Streptomycin (PS) and 1% of bovine serum albumin (BSA). The ventral portion of the mesencephalic flexure, a region of the developing brain rich in dopaminergic neurons, is used for the cell preparations.
The midbrains are dissociated by trypsinisation for 20 min at 37° C. (solution at a final concentration of 0.05% trypsin and 0.02% EDTA). The reaction is stopped by the addition of Dulbecco’s modified Eagle’s medium (DMEM) containing DNAase I grade II (0.5 mg/mL) and 10% of foetal calf serum (FCS). Cells are then mechanically dissociated by 3 passages through a 10 mL pipette. Cells are then centrifuged at 180 x g for 10 min at +4° C. on a layer of BSA (3.5%) in L15 medium. […] Viable cells are counted in a Neubauer cytometer using the trypan blue exclusion test. […] Six wells per condition are assessed. […]

SMILES: O=C(Nc1ccc2c(c1)S(=O)(=O)N(c1ccc(Br)cc1)CCO2)c1cnc(-c2ccccc2)[nH]1 [Compound 1331, N-(2-(4-bromophenyl)-1,1-dioxido-3,4-dihydro-2H-benzo[b][1,4,5]oxathiazepin-8-yl)-2-phenyl-1H-imidazole-5-carboxamide]
- ROS production: reduction in ROS
